Results reported in patent US20230338337A1, “BIOMARKERS FOR CANCER THERAPY USING MDM2 ANTAGONISTS” (OTSUKA PHARMACEUTICAL CO., LTD., priority 2019, published 2023).
Entries after “also recorded” stand apart in the source; their conditions may differ. Read-outs that look alike come from different tables or passages of the source.

Legend:
[1] = system: OCI-AML3 cells; test: Induction of apoptosis by cleaved caspase-3 cytometry; type: cell-based; details: 72 h
[2] = system: #2 mesothelioma cell line; test: Induction of activated caspase-3; type: cell-based, human; details: 72-hour treatment with 1 μM Compound 1
Experimental: (§1) In certain embodiments, the MDM2 antagonist induces apoptosis of the cancer cell. Apoptosis may typically be mediated via activated caspase-3. Induction of apoptosis can be determined by detecting cells that are positive for activated caspase-3 following 72-hour treatment with 1 μM of the MDM2 antagonist. […] In certain embodiments, at least 10%, at least 20% or at least 30% of cells staining positive for activated caspase-3 is an indicator of induced apoptosis. […] Active caspase-3 staining kits are commercially-available, for example the “Cleaved Caspase-3 Staining Kit (Red)” available from Abcam (Cambridge, UK) as catalogue number ab65617. The Invitrogen Cell Event dye (C10423) may also be used.
(§2) The extent of Compound 1-induced apoptosis is not predicted from the IC50 values obtained from the Alarmar Blue proliferation assays (Table 1), thus emphasising the impact of grouping cell lines specifically based on their apoptotic potential for subsequent bioinformatics analyses described in the following section.

[3] = system: #12 mesothelioma cell line; test: Induction of activated caspase-3; type: cell-based, human; details: 72-hour treatment with 1 μM Compound 1
Experimental: as §1, §2

[4] = system: #52 mesothelioma cell line; test: Induction of activated caspase-3; type: cell-based, human; details: 72-hour treatment with 1 μM Compound 1
Experimental: as §1, §2

[5] = system: MESO-50T mesothelioma cell line; test: Induction of activated caspase-3; type: cell-based, human; details: 72-hour treatment with 1 μM Compound 1
Experimental: as §1, §2

[6] = system: MESO-29T mesothelioma cell line; test: Induction of activated caspase-3; type: cell-based, human; details: 72-hour treatment with 1 μM Compound 1
Experimental: as §1, §2

[7] = system: #19 mesothelioma cell line; test: Induction of activated caspase-3; type: cell-based, human; details: 72-hour treatment with 1 μM Compound 1
Experimental: as §1, §2

[8] = system: MESO-7T mesothelioma cell line; test: Induction of activated caspase-3; type: cell-based, human; details: 72-hour treatment with 1 μM Compound 1
Experimental: as §1, §2

[9] = system: #40 mesothelioma cell line; test: Induction of activated caspase-3; type: cell-based, human; details: 72-hour treatment with 1 μM Compound 1
Experimental: as §1, §2

[10] = system: #24 mesothelioma cell line; test: Induction of activated caspase-3; type: cell-based, human; details: 72-hour treatment with 1 μM Compound 1
Experimental: as §1, §2

[11] = system: #26 mesothelioma cell line; test: Induction of activated caspase-3; type: cell-based, human; details: 72-hour treatment with 1 μM Compound 1
Experimental: as §1, §2

[12] = system: #35 mesothelioma cell line; test: Induction of activated caspase-3; type: cell-based, human; details: 72-hour treatment with 1 μM Compound 1
Experimental: as §1, §2

[13] = system: #18 mesothelioma cell line; test: Induction of activated caspase-3; type: cell-based, human; details: 72-hour treatment with 1 μM Compound 1
Experimental: as §1, §2

[14] = system: human patient-derived mesothelioma cell lines; test: Induction of activated caspase-3, panel; type: cell-based; details: all 12 cell lines
Experimental: as §1, §2

[15] = system: Caki-1 renal cancer cell line with BAP1 knock-down; test: CAKI1 shBAP1 apoptotic assay (Annexin V); type: cell-based, human; details: 72 hours with 1 uM Compound 1; BAP1 loss versus control
Source text: 3 independent shRNAs targeting BAP1 were used and BAP1 knock-down levels achieved with 2 independent shRNAs.

[16] = system: 12 p53 wild-type, patient-derived mesothelioma cell lines; test: 72-hour Alamar Blue proliferation assay, panel; type: cell-based; details: Homo sapiens
Experimental: (§3) For all cell lines the number of viable cells was determined by measuring the conversion of Rezasurin (Alamar Blue) to Resorufin in response to mitochondrial activity of the viable cells. Alamar Blue™ (AbD Serotec/Bio-Rad, Hercules, CA, USA) was added to 10% of the well volume (20 μl/well) towards the end of the treatment period and incubated for a further 8-24 h. The plate was then read at 535 nm (excitation) and 590 nm (emission) on a SpectraMax Gemini reader (Molecular Devices, Sunnyvale, CA, USA). Each well was calculated as percentage of the mean DMSO control.

[17] = system: 210 p53 wild-type cancer cell lines; test: Cell line panel screen, CellTiter-Glo, 3 days; type: cell-based; details: ANOVA, adjusted p-value<0.02
Experimental: Genomic features for these cell lines such as somatic mutations, copy number alterations and hypermethylation were obtained from the list of Cancer Functional Events as reported by Garnett et al (2016). ANOVA method was used to identify significant associations of genomics features to Compound 1 drug response.
Cancer cells were cultured in appropriate medium.
Each cell line was tested in triplicates.

[18] = system: #2 mesothelioma cell line; test: 72-hour Alamar Blue proliferation assay; type: cell-based; details: Homo sapiens, read-out: Mean Compound 1 Proliferation IC50 (μM), cell line #2
Experimental: as §3

[19] = system: #12 mesothelioma cell line; test: 72-hour Alamar Blue proliferation assay; type: cell-based; details: Homo sapiens, read-out: Mean Compound 1 Proliferation IC50 (μM), cell line #12
Experimental: as §3

[20] = system: #52 mesothelioma cell line; test: 72-hour Alamar Blue proliferation assay; type: cell-based; details: Homo sapiens, read-out: Mean Compound 1 Proliferation IC50 (μM), cell line #52
Experimental: as §3

[21] = system: MESO-50T mesothelioma cell line; test: 72-hour Alamar Blue proliferation assay; type: cell-based; details: Homo sapiens, read-out: Mean Compound 1 Proliferation IC50 (μM), cell line MESO-50T
Experimental: as §3

[22] = system: MESO-29T mesothelioma cell line; test: 72-hour Alamar Blue proliferation assay; type: cell-based; details: Homo sapiens, read-out: Mean Compound 1 Proliferation IC50 (μM), cell line MESO-29T
Experimental: as §3

[23] = system: #19 mesothelioma cell line; test: 72-hour Alamar Blue proliferation assay; type: cell-based; details: Homo sapiens, read-out: Mean Compound 1 Proliferation IC50 (μM), cell line #19
Experimental: as §3

[24] = system: #40 mesothelioma cell line; test: 72-hour Alamar Blue proliferation assay; type: cell-based; details: Homo sapiens, read-out: Mean Compound 1 Proliferation IC50 (μM), cell line #40
Experimental: as §3

[25] = system: #24 mesothelioma cell line; test: 72-hour Alamar Blue proliferation assay; type: cell-based; details: Homo sapiens, read-out: Mean Compound 1 Proliferation IC50 (μM), cell line #24
Experimental: as §3

[26] = system: #35 mesothelioma cell line; test: 72-hour Alamar Blue proliferation assay; type: cell-based; details: Homo sapiens, read-out: Mean Compound 1 Proliferation IC50 (μM), cell line #35
Experimental: as §3

[27] = system: primary mesothelioma cell line Meso #24 with BAP1 knockdown; test: Apoptosis after BAP1 shRNA knockdown; type: cell-based, human; details: BAP1 knockdown versus control
Source text: BAP1 shRNA was used on primary mesothelioma cell line Meso #24 to achieves table BAP1 knockdown.

[28] = system: SJSA-1; test: Protocol B: CellTiter-Glo cell viability assay
[29] = system: SN40R2 (p53 mutated, MDM2 amplified osteosarcoma); test: Protocol A: SRB growth inhibition assay; details: read-out: SN40R2 IC50 (μM) (Protocol A)
[30] = system: SN40R2; test: Protocol B: CellTiter-Glo cell viability assay; details: read-out: SN40R2 (Protocol B) % inhibition at 10, Protocol B
[31] = system: multiple myeloma (MM) cells; details: in vitro and ex vivo; cited from earlier work
[32] = system: human leukaemia models; details: mice; by inducing MDM2 degradation; cited from earlier work
[33] = system: cancer cell lines; details: cited from earlier work
[34] = system: tumour growth; details: cited from earlier work
[35] = read-out: SJSA1 IC50 (μM) (Protocol B), Protocol B

Structure (SMILES): C[C@@H]1CN(CC(=O)N2CC(C)(C)c3nc(CO)c(Cc4ccc(F)cc4)cc32)[C@@H](CN2CCOC[C@H]2C)CN1 [ASTX660, 1-{6-[(4-fluorophenyl)methyl]-5-(hydroxymethyl)-3,3-dimethyl-1H,2H,3H-pyrrolo[3,2-b]pyridin-1-yl}-2-[(2R,5R)-5-methyl-2-{[(3R)-3-methylmorpholin-4-yl]methyl}piperazin-1-yl]ethan-1-one, reference compound]
- level of apoptosis (cleaved caspase-3) ([1]; 0.1 μM COMPOUND 1 with 1 μM ASTX660 and 1 ng/ml TNF-alpha): sensitises the OCI-AML3 line to apoptosis induction by COMPOUND 1

Structure (SMILES): CC[C@@](O)(c1cc(F)c2c(c1)C(=O)N([C@H](c1ccc(Cl)cc1)[C@H](C)C(=O)O)[C@@]2(OC)c1ccc(Cl)cc1)C1CCOCC1 [Compound 1, (2S,3S)-3-(4-chlorophenyl)-3-[(1R)-1-(4-chlorophenyl)-7-fluoro-5-[(1S)-1-hydroxy-1-(oxan-4-yl)propyl]-1-methoxy-3-oxo-2,3-dihydro-1H-isoindol-2-yl]-2-methylpropanoic acid]
- cells staining positive for activated caspase-3 [2]: > 40%
- cells staining positive for activated caspase-3 [3]: > 40%
- cells staining positive for activated caspase-3 [4]: > 40%
- apoptosis (cells positive for activated caspase-3) [5]: < 40%
- apoptosis (cells positive for activated caspase-3) [6]: < 40%
- cells staining positive for activated caspase-3 [7]: > 40%
- cells staining positive for activated caspase-3 [8]: > 40%
- cells staining positive for activated caspase-3 [9]: > 40%
- apoptosis (cells positive for activated caspase-3) [10]: < 40%
- apoptosis (cells positive for activated caspase-3) [11]: < 40%
- apoptosis (cells positive for activated caspase-3) [12]: < 40%
- apoptosis (cells positive for activated caspase-3) [13]: < 40%
- activated caspase-3 induction [14]: increase in activated caspase-3 was observed in all cell lines
- % of cells undergoing apoptosis (Annexin V) [15]: increased apoptosis
- IC50 ([16]; in 7 of the 12 cell lines): < 100 nM
- IC50 ([16]; in 11 cell lines): < 400 nM
- sensitivity of cell lines with CDKN2A loss versus wild-type CDKN2A [17]: enhanced sensitivity
- level of apoptosis (cleaved caspase-3) ([1]; 0.1 μM COMPOUND 1 alone): did not induce a high level of apoptosis; also recorded: does not induce substantial levels of cell death by apoptosis
- IC50 [18]: 0.062 µM
- IC50 [19]: 0.078 µM
- IC50 [20]: 0.076 µM
- IC50 [21]: 0.067 µM
- IC50 [22]: > 10 µM
- IC50 [23]: 0.17 µM
- IC50 [24]: 0.0092 µM
- IC50 [25]: 0.094 µM
- IC50 [26]: 0.045 µM
- apoptosis after Compound 1 treatment [27]: increased apoptosis

Structure (SMILES): CCC(O)(c1cc(F)c2c(c1)C(=O)N(Cc1ncc(Cl)cc1O)[C@@]2(OCCO)c1ccc(Cl)cc1)c1cn(C)cn1 (stereo partly drawn) [Example 443, (3R)-2-[(5-chloro-3-hydroxypyridin-2-yl)methyl]-3-(4-chlorophenyl)-4-fluoro-6-[1-hydroxy-1-(1-methyl-1H-imidazol-4-yl)propyl]-3-(2-hydroxyethoxy)-2,3-dihydro-1H-isoindol-1-one]
- IC50 ([28]; Homo sapiens, SJSA-1, read-out: SJSA1 IC50 (μM) (Protocol B), Protocol B): 0.093 µM
- IC50 [29]: 38 µM
- inhibition at 10 µM [30]: 3%

Structure (SMILES): CCC(O)(c1cc(F)c2c(c1)C(=O)N(Cc1ccc(C#N)cn1)[C@@]2(O[C@H]1CCOC1)c1ccc(Cl)cc1)C1(F)CCOCC1 (stereo partly drawn) [Example 446, 6-{[(1R)-1-(4-chlorophenyl)-7-fluoro-5-[1-(4-fluorooxan-4-yl)-1-hydroxypropyl]-3-oxo-1-[(3S)-oxolan-3-yloxy]-2,3-dihydro-1H-isoindol-2-yl]methyl}pyridine-3-carbonitrile]
- IC50 [28, 35]: 0.023 µM
- IC50 [29]: 29 µM

Structure (SMILES): CCC(O)(CN1CCN(C)CC1)c1cc(F)c2c(c1)C(=O)N(Cc1ncc(Cl)cn1)[C@@]2(O[C@H]1CCOC1)c1ccc(Cl)cc1 (stereo partly drawn) [Example 522, (3R)-3-(4-chlorophenyl)-2-[(5-chloropyrimidin-2-yl)methyl]-4-fluoro-6-[2-hydroxy-1-(4-methylpiperazin-1-yl)butan-2-yl]-3-[(3S)-oxolan-3-yloxy]-2,3-dihydro-1H-isoindol-1-one]
- IC50 [28, 35]: 0.048 µM
- inhibition at 10 µM [30]: 24%

Structure (SMILES): c1ccc2c(CCNc3ccc(Nc4ccncc4)cc3)c[nH]c2c1 [JNJ 26854165]
- activity against multiple myeloma (MM) cells [31]: potent activity

Structure (SMILES): O=C(O)C(F)(F)F.O=C1CCC(N2Cc3c(C#CCCCNC(=O)c4ccc(NC(=O)[C@@H]5NC6(CCCCC6)[C@@]6(C(=O)Nc7cc(Cl)ccc76)[C@H]5c5cccc(Cl)c5F)cc4)cccc3C2=O)C(=O)N1 (stereo partly shown) [LE-004]
- growth inhibition in human leukaemia models [32]: efficiently inhibited growth

Structure (SMILES): CC(C)(C)C[C@@H]1N[C@@H](C(=O)N[C@H]2CC[C@H](O)CC2)[C@H](c2cccc(Cl)c2F)[C@]12C(=O)Nc1cc(Cl)ccc12 [MI-773]
- cell growth inhibition [33]: potently inhibits cell growth

Structure (SMILES): COc1cc(C(N)=O)ccc1NC(=O)[C@@H]1N[C@@H](CC(C)(C)C)C2(C(=O)Nc3cc(Cl)ccc32)[C@H]1c1cccc(Cl)c1F (stereo partly shown) [RO-8994]
- tumour growth inhibition [34]: inhibit tumour growth
